This is an account of results in patent US20240043859A1, “HERBICIDE-RESISTANT PROTEIN, AND GENE AND USE THEREOF” (QINGDAO KINGAGROOT CHEMICAL COMPOUND CO., LTD., priority 2020, published 2024).

Data set [1] has as its system Arabidopsis thaliana. The data set is described as follows: Spray testing of T2 generation transgenic Arabidopsis thaliana. To be noted: 100 g/ha foliage spray, 10 days after spraying. It counts as in vivo. An excerpt: The T2 generation seedlings of four representative transformants, pQY2309, pQY2310, pQY2311 and pQY2313, were selected for further spray testing. Four lines were randomly selected from the T2 generation generated by transformation of each vector, and respectively foliage-sprayed with 2,4-D (100 g/ha), MCPA (100 g/ha) and 2,4-DB sodium (100 g/ha) when Arabidopsis thaliana seeds germinated, transplanted and the seedlings grew to 5-7 leaf. Non-transgenic wild-type Col-0 served as a negative control. The level of resistance was assessed 10 days after spraying.

For data set [2], the system named is maize B104. The data set is described as follows: Herbicide-resistance capacity testing of transgenic maize (spray). It is filed as in vivo. To be noted: 4.48 kg/ha foliage spray, 14 days / 15 days. An excerpt: 1. Vector construction: the overexpression vector was altered from pCambia3300, containing a Bar resistance gene that can be used as a selection marker for bialaphos (glufosinate). The AAD-like gene, QYD42, SEQ ID NO. 83, was linked to the pCambia3300 at the BamH I restriction site by seamless cloning to construct the transgenic vector pQY2329, of which the expression cassette consisted of a maize ubiquitin-1 promoter, the AAD gene and a Nos terminator, as shown in FIG. 7-1.
2. Genetic transformation of maizes: Maize transformation was carried out by the Agrobacterium-mediated immature embryo transformation method (Jones T, Lowe K, Hoerster G, et al. Maize Transformation Using the Morphogenic Genes Baby Boom and Wuschel2. Methods Mol Biol. 2019; 1864:81-93. Doi: 10.1007/978-1-4939-8778-8 6). The Agrobacterium (EHA105) comprising the pQY2329 overexpression vector was inoculated into YEP liquid medium (containing 25 mg/L Rifampicin and 50 mg/L Kanamycin), and shaking-cultured a t 28° C., 220 rmp/min overnight until the OD600 was about 1.0-1.5, then centrifuged at 6000 rmp/min for 10 min to collect the cells into a 50 ml centrifuge tube (sterilized). After discarding the supernatant, the cells were resuspended using MS infect culture medium (containing 68.5 g/L sucrose, 36 g/L glucose, pH 5.8) to OD550=0.8. […]

Data set [3] concerns the target T1, AAD-12 (Delftia acidovorans, UniProt P83309).
T1 construct: made in house; host or cells: E. coli BL21(DE3)
The data set is described as follows: Degradation activities of AAD-12 on phenoxy acetic acid herbicides by spectrophotometry (A510). It counts as biochemical, Comamonas acidovorans. The procedure: As reported in literature (Fukomori and Flausinger, Purification and characterization of 2,4-dichlorophenoxyacetate/alpha-ketoglutarate dioxygenase Journal of Biological Chemistry (1993) 268(32): 24311-24317), the constructed expression vector pET15b-AAD12 was transformed into E. coli BL21(DE3) and induced by IPTG for expression. After cells were collected and lysed, Ni-NTA column was used for purification and the purity of the protein was analyzed by SDS-PAGE.
Since phenolic products were produced by AAD-12-substrate catalytic reaction, 4-aminoantipyrine and potassium ferricyanide could be used to develop color with the products in an alkaline environment to generate red products with absorption at 510 nm, and the relevant parameters were directly read with a microplate reader.

[4] abbreviates: AAD-12 enzyme with substrate, chromogenic detection at 510 nm.

Entries after “also recorded” stand apart in the source; their conditions may differ.

T1 sequence (P83309 2-292, added parts left off): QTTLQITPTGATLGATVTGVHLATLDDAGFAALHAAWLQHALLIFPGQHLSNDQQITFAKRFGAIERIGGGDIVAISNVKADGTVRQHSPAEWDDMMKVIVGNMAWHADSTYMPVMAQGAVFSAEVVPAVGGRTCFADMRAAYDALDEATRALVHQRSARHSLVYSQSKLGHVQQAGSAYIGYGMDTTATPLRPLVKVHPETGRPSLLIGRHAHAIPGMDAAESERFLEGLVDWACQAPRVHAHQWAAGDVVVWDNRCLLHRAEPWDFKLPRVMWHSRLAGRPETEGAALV

Regarding `O=C(O)COc1ccc(Cl)cc1Cl` [2,4-D, (2,4-dichlorophenoxy)acetic acid, reference compound], the “Effect of the herbicide spray on wild-type Col-0” value in data set [1] was “all or almost all non-transgenic wild-type Arabidopsis thaliana died; also recorded: all die”. Moreover, the “Effect of the herbicide spray on non-transgenic maize B104” value in data set [2] is “apparent phytotoxicity, root nodules, reduced root system and easily-lodging plant; also recorded: stem bases of maize B104 are swollen”. Further, the “Degradation activity of expressed AAD-12 enzyme on the substrate” value in data set [3] is on record as “degradation activities”. Besides, in data set [3] (setting [4]), the “A510 of reaction group, Reaction 1” value turned out to be 0.2865; the “A510 of reaction group, Reaction 2” value stood at 0.2766; the “A510 of reaction group, Reaction 3” value came out at 0.2652. The “Increased A510” value in data set [3] (reaction group versus blank group) is on record as “+0.130”.
